Results as given in patent US12508259B2, “Pharmaceutical formulations containing Nalbuphine” (Humanwell Pharmaceutical US, Inc., priority 2022, dated 2025).
In brackets after ≈: the same amount, converted by molar mass. Counter-ions that a name gives are not always drawn. Like-named read-outs stand apart in the source and are kept apart here.

Columns and labels:
[1] = commercially available Nalbuphine hydrochloride; cited from earlier work
[2] = Nalbuphine solubility in different acids (overnight stirring, HPLC); type: physicochemical; conditions: approx. 0.5 mmol/mL acid; for solubility: aqueous buffer, thermodynamic from solid, Nalbuphine base Solubility
Experimental: A preliminary assessment of Nalbuphine solubility in different acids was performed. After overnight continuous stirring, the suspensions were centrifuged, and supernatants were filtered through a 0.2 μm filter.

Compound	solubility [1]	solubility ([2]; DL-malic acid solution, in DL-Malic acid) [mM]	solubility ([2]; acetic acid solution, in Acetic acid) [mM]	solubility ([2]; citric acid solution, in Citric acid) [mM]	solubility ([2]; hydrochloric acid solution, in Hydrochloride acid) [mM]	Nalbuphine base Solubility ([2]; in Citric acid) [mM]	Nalbuphine base Solubility ([2]; in Sulfuric acid) [mM]	solubility ([2]; lactic acid solution, in Lactic acid) [mM]	solubility ([2]; phosphoric acid solution, in Phosphoric acid) [mM]	solubility ([2]; succinic acid solution, in Succinic acid) [mM]	solubility ([2]; sulfuric acid solution, in Sulfuric acid) [mM]	solubility ([2]; tartaric acid solution, in Tartaric acid) [mM]
Oc1ccc2c3c1O[C@H]1[C@@H](O)CC[C@@]4(O)[C@@H](C2)N(CC2CCC2)CC[C@]314 [Nalbuphine hydrochloride]	approximately 30 mg/mL	–	–	–	–	–	–	–	–	–	–	–
Oc1ccc2c3c1O[C@H]1[C@@H](O)CC[C@@]4(O)[C@@H](C2)N(CC2CCC2)CC[C@]314 [Nalbuphine base, N-cyclobutylmethyl-14-hydroxydihydronormorphine]	–	630 (≈ 225 mg/mL)	420 (≈ 150 mg/mL)	> 1000	90 (≈ 32.2 mg/mL)	1070	~1120	460 (≈ 164 mg/mL)	530 (≈ 189 mg/mL)	480 (≈ 172 mg/mL)	> 1000	930 (≈ 332 mg/mL)
